Test results from ChEMBL document CHEMBL3885861, “Open TG-GATES”.

Species on record: Rattus norvegicus
Test: Open TG-GATES - Regimen: Single
Format: toxicity, organism-based, Sprague-Dawley
Parameters: regimen Single, gender Male, age 6 weeks
Details: in vivo, po, 300 mg/kg, route gavage, dose level High; for APTT / Bas / Eos / Fbg / Hb / Ht / Lym / MCH / MCHC / MCV / Mono / Neu / PT / Plat / RBC / Ret / WBC: tissue Blood; for KIDNEY_L / KIDNEY_R / KIDNEY_TOTAL: tissue Kidney; for LIVER: tissue Liver; for A/G / ALP / ALT / AST / BUN / CRE / Ca / Cl / DBIL / GLC / IP / K / LDH / Na / PL / RALB / TBIL / TC / TG / TP / gamma-GTP: tissue Plasma

In the case of `CC[C@H]1[C@@H]2C[C@H]3[C@@H]4N(C)c5ccccc5[C@]45C[C@@H]([C@@H]2[C@H]5O)N3[C@@H]1O` [AJMALINE], the TERMINAL_BW (3 h) is reported as 194.9 g, the APTT (3 h) is reported as 17 s and the Bas (3 h) is reported as 0%. For the same compound, the Eos (3 h) was 0.6%, the Fbg (3 h) was 201.8 mg/dL and the Hb (3 h) was 13 g/dL. For the same compound, the Ht (3 h) was 39.5%, the Lym (3 h) was 80.6% and the MCH (3 h) was 21.3 pg. The MCHC (3 h) was 32.8%, the MCV (3 h) was 64.8 fL and the Mono (3 h) was 6.4%. It also gave a Neu (3 h) of 12.6%, a PT (3 h) of 11.9 s and a Plat (3 h) of 106.2 x10_4/uL. It also gave an RBC (3 h) of 611.2 x10_4/ul, a Ret (3 h) of 11.5% and a WBC (3 h) of 94.5 x10_2/uL. It also gave a KIDNEY_L (3 h) of 0.9 g, a KIDNEY_R (3 h) of 0.9 g and a KIDNEY_TOTAL (3 h) of 1.9 g. It also gave an LIVER (3 h) of 9.2 g, an A/G (3 h) of 2.3 and an ALP (3 h) of 955.4 IU/L. For the same compound, the ALT (3 h) was 34 IU/L, the AST (3 h) was 64.6 IU/L and the BUN (3 h) was 13.2 mg/dL. The CRE (3 h) was 0.4 mg/dL, the Ca (3 h) was 10.6 mg/dL and the Cl (3 h) was 103.6 meq/L. For the same compound, the DBIL (3 h) was 0.018 mg/dL, the GLC (3 h) was 184.6 mg/dL and the IP (3 h) was 8.9 mg/dL. It also gave a K (3 h) of 4.4 meq/L, an LDH (3 h) of 108.4 IU/L and a Na (3 h) of 137.8 meq/L. It also gave a PL (3 h) of 135 mg/dL, an RALB (3 h) of 3.7 g/dL and a TBIL (3 h) of 0.4 mg/dL. It also gave a TC (3 h) of 71.4 mg/dL, a TG (3 h) of 57.8 mg/dL and a TP (3 h) of 5.3 g/dL. For the same compound, the gamma-GTP (3 h) was 1 IU/L, the TERMINAL_BW (6 h) was 195.8 g and the APTT (6 h) was 17.3 s. For the same compound, the Bas (6 h) was 0%, the Eos (6 h) was 1.2% and the Fbg (6 h) was 211.8 mg/dL. For the same compound, the Hb (6 h) was 13.1 g/dL, the Ht (6 h) was 40% and the Lym (6 h) was 69.2%. It also gave an MCH (6 h) of 21.6 pg, an MCHC (6 h) of 32.7% and an MCV (6 h) of 66 fL. It also gave a Mono (6 h) of 8.8%, a Neu (6 h) of 20.6% and a PT (6 h) of 11.8 s. The Plat (6 h) was 109.7 x10_4/uL, the RBC (6 h) was 607 x10_4/ul and the Ret (6 h) was 11.3%. It also gave a WBC (6 h) of 82.2 x10_2/uL, a KIDNEY_L (6 h) of 0.9 g and a KIDNEY_R (6 h) of 1 g. It also gave a KIDNEY_TOTAL (6 h) of 1.9 g, an LIVER (6 h) of 9 g and an A/G (6 h) of 2.1. For the same compound, the ALP (6 h) was 795 IU/L, the ALT (6 h) was 32.2 IU/L and the AST (6 h) was 64.6 IU/L. For the same compound, the BUN (6 h) was 10.4 mg/dL, the CRE (6 h) was 0.5 mg/dL and the Ca (6 h) was 10.8 mg/dL. It also gave a Cl (6 h) of 102.6 meq/L, a DBIL (6 h) of 0.062 mg/dL and a GLC (6 h) of 184.6 mg/dL. It also gave an IP (6 h) of 9.2 mg/dL, a K (6 h) of 4.6 meq/L and an LDH (6 h) of 93.2 IU/L. The Na (6 h) was 137.2 meq/L, the PL (6 h) was 142.6 mg/dL and the RALB (6 h) was 3.7 g/dL. The TBIL (6 h) was 0.4 mg/dL, the TC (6 h) was 77.8 mg/dL and the TG (6 h) was 40.2 mg/dL. It also gave a TP (6 h) of 5.4 g/dL, a gamma-GTP (6 h) of 1.8 IU/L and a TERMINAL_BW (9 h) of 189 g. The APTT (9 h) was 16.4 s, the Bas (9 h) was 0% and the Eos (9 h) was 1.4%. It also gave a Fbg (9 h) of 215.8 mg/dL, a Hb (9 h) of 13.2 g/dL and a Ht (9 h) of 40.1%. The Lym (9 h) was 72.8%, the MCH (9 h) was 21.2 pg and the MCHC (9 h) was 32.9%. The MCV (9 h) was 64.4 fL, the Mono (9 h) was 8% and the Neu (9 h) was 18.4%. It also gave a PT (9 h) of 11.9 s, a Plat (9 h) of 117.8 x10_4/uL and an RBC (9 h) of 623.8 x10_4/ul. For the same compound, the Ret (9 h) was 11.7%, the WBC (9 h) was 70.8 x10_2/uL and the KIDNEY_L (9 h) was 0.9 g. It also gave a KIDNEY_R (9 h) of 0.9 g, a KIDNEY_TOTAL (9 h) of 1.7 g and an LIVER (9 h) of 8.5 g. For the same compound, the A/G (9 h) was 2.3, the ALP (9 h) was 780.6 IU/L and the ALT (9 h) was 31 IU/L. The AST (9 h) was 62.8 IU/L, the BUN (9 h) was 13.2 mg/dL and the CRE (9 h) was 0.6 mg/dL. It also gave a Ca (9 h) of 10.5 mg/dL, a Cl (9 h) of 103.6 meq/L and a DBIL (9 h) of 0.078 mg/dL. The GLC (9 h) was 178 mg/dL, the IP (9 h) was 10.1 mg/dL and the K (9 h) was 5 meq/L. The LDH (9 h) was 113.8 IU/L, the Na (9 h) was 138.4 meq/L and the PL (9 h) was 146.4 mg/dL. For the same compound, the RALB (9 h) was 3.8 g/dL, the TBIL (9 h) was 0.4 mg/dL and the TC (9 h) was 87.8 mg/dL. For the same compound, the TG (9 h) was 50 mg/dL, the TP (9 h) was 5.4 g/dL and the gamma-GTP (9 h) was 1 IU/L. For the same compound, the TERMINAL_BW (24 h) was 206.4 g, the APTT (24 h) was 16 s and the Bas (24 h) was 0%. It also gave an Eos (24 h) of 1%, a Fbg (24 h) of 199.4 mg/dL and a Hb (24 h) of 13 g/dL. The Ht (24 h) was 39.3%, the Lym (24 h) was 79.8% and the MCH (24 h) was 21.6 pg. The MCHC (24 h) was 33%, the MCV (24 h) was 65.5 fL and the Mono (24 h) was 6.8%. The Neu (24 h) was 12.6%, the PT (24 h) was 11.8 s and the Plat (24 h) was 108 x10_4/uL. The RBC (24 h) was 599.6 x10_4/ul, the Ret (24 h) was 9.9% and the WBC (24 h) was 77.5 x10_2/uL. It also gave a KIDNEY_L (24 h) of 1 g, a KIDNEY_R (24 h) of 1 g and a KIDNEY_TOTAL (24 h) of 1.9 g. For the same compound, the LIVER (24 h) was 9.9 g, the A/G (24 h) was 2.2 and the ALP (24 h) was 860.6 IU/L. For the same compound, the ALT (24 h) was 37.4 IU/L, the AST (24 h) was 69 IU/L and the BUN (24 h) was 18 mg/dL. The CRE (24 h) was 0.6 mg/dL, the Ca (24 h) was 11 mg/dL and the Cl (24 h) was 101.4 meq/L. The DBIL (24 h) was 0.03 mg/dL, the GLC (24 h) was 196.4 mg/dL and the IP (24 h) was 9.1 mg/dL. The K (24 h) was 4.6 meq/L, the LDH (24 h) was 109.4 IU/L and the Na (24 h) was 139.4 meq/L. It also gave a PL (24 h) of 149.4 mg/dL, an RALB (24 h) of 3.7 g/dL and a TBIL (24 h) of 0.4 mg/dL. The TC (24 h) was 83.8 mg/dL, the TG (24 h) was 99 mg/dL and the TP (24 h) was 5.3 g/dL. The gamma-GTP (24 h) was 0.8 IU/L.
